Experimental data reported in patent US20110263539A1, “SHIP 1 MODULATOR COMPOUNDS” (THE UNIVERSITY OF BRITISH COLUMBIA, priority 2006, published 2011).

Experiments:
Mast cells = assay: Stimulation of mast cells by FcεRI crosslinking (Assay 4); format: cell-based; conditions: anti-DNP IgE, DNP-HSA
Description: Assay 4) Stimulation of mast cells by FcåRI crosslinking. Mast cells were pre-loaded overnight in BMMC medium lacking IL-3 with 0.1 μg/ml anti-DNP IgE (SPE-7, Sigma, Oakville, Ont). For calcium flux measurements, cells were incubated with 2 μM fura 2-acetoxymethyl ester (Molecular Probes, Eugene, Oreg.) in Tyrode's buffer at 23° C. for 45 min. Cells were then washed and incubated in the presence of the test compound 30 min prior to stimulation with the indicated concentration of DNP-human serum albumin (DNP-HSA). Calcium influx was monitored by spectrofluorometry as described previously. For analysis of intracellular signaling, cells were pre-loaded with anti-DNP IgE as above, pre-treated with the test compound for 30 min at 37° C. and stimulated with 20 ng/ml DNP-HSA for 5 min. Total cell lysates were then prepared and analyzed for phospho-PKB, phospho-p38^MAPK, phospho-MAPK, Grb-2 (Cell Signalling, Mississauga, Ont) and SHIP^6 by immunoblot analysis.

MM cell lines = assay: In vitro Multiple Myeloma (MM) assay (Assay 7); format: cell-based; on Assay Number 7: In vitro Multiple Myeloma (MM) assay: key: a ‘+’ indicates a positive result for desired activity; a ‘−’ indicates a negative result for desired activity

Cc1cc(O)cc2c1[C@]1(C)CCC3C(C)(C)CCC[C@]3(C)[C@H]1C2 (stereo partly drawn) [Compound 100]
Assay Number 4: Stimulation of mast cells by FcεRI crosslinking (Mast cells): +
Assay Number 7: In vitro Multiple Myeloma (MM) assay (MM cell lines): +
MM proliferation (MM cell lines; viable cell numbers, trypan blue exclusion): inhibits MM proliferation at lower concentrations than AQX-016A
